# Source: ChEMBL document CHEMBL1201862, “PubChem BioAssay data set” (2004)
#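 Following 48 hours of exposure in 96-well plates, responses at five concentrations were used to interpolate endpoints linearly. The concentration for 50% growth inhibition is given as GI50.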 The source made the active and inactive calls. Rule as the data show it: active = GI50 up to about 1.1 µM and inactive = higher.
# How the values were obtained:
# Test in all cases: inhibition of tumour cell growth, NCI panel, 48 h
# NCI/ADR-RES = test system: NCI/ADR-RES
# T47D = test system: T47D
# SR = test system: SR
# PC-3 = test system: PC-3
# RPMI-8226 = test system: RPMI-8226
# TK-10 = test system: TK-10
# HCC 2998 = test system: HCC 2998
# HOP-62 = test system: HOP-62
# M14 = test system: M14
# Malme-3M = test system: Malme-3M
# ACHN = test system: ACHN
# SK-MEL-2 = test system: SK-MEL-2
# DLD-1 = test system: DLD-1
# DMS-273 = test system: DMS-273
# DMS-114 = test system: DMS-114
# NCI-H522 = test system: NCI-H522
# HOP-18 = test system: HOP-18
# SNB-78 = test system: SNB-78
# XF498 = test system: XF498
# LXFL 529 = test system: LXFL 529
SMILES,GI50 (NCI/ADR-RES),GI50 (T47D),GI50 (SR),GI50 (PC-3),GI50 (RPMI-8226),GI50 (TK-10),GI50 (HCC 2998),GI50 (HOP-62),GI50 (M14),GI50 (Malme-3M),GI50 (ACHN),GI50 (SK-MEL-2),GI50 (DLD-1),GI50 (DMS-273),GI50 (DMS-114),GI50 (NCI-H522),GI50 (HOP-18),GI50 (SNB-78),GI50 (XF498),GI50 (LXFL 529)
COC(=O)C#Cc1cccc(OC)c1OC,30.3 µM (inactive),> 100 µM (inactive),18.7 µM (inactive),36.7 µM (inactive),30.1 µM (inactive),41.8 µM (inactive),24.4 µM (inactive),98.2 µM (inactive),49.7 µM (inactive),28 µM (inactive),60 µM (inactive),,,,,,,,,
N=C(N)Nc1ncccc1[N+](=O)[O-],> 100 µM (inactive),,,,> 95.1 µM (inactive),,55.2 µM (inactive),> 100 µM (inactive),,44.6 µM (inactive),,> 100 µM (inactive),> 100 µM (inactive),> 100 µM (inactive),15.8 µM (inactive),> 100 µM (inactive),> 100 µM (inactive),> 100 µM (inactive),> 100 µM (inactive),
COc1nc(Cl)c(Cl)c(Cl)n1.COc1nc(Cl)nc(Cl)c1Cl,7.87 µM (inactive),2.29 µM (inactive),0.09 µM (active),2.66 µM (inactive),0.938 µM (active),8.73 µM (inactive),0.252 µM (active),2.92 µM (inactive),8.36 µM (inactive),10.6 µM (inactive),7.59 µM (inactive),7.62 µM (inactive),,,,0.675 µM (active),,,,
CCCCOc1ccc(OCCCCCCCCCC[N+](C)(C)C)cc1,58.9 µM (inactive),,,,0.481 µM (active),,1.95 µM (inactive),3.62 µM (inactive),,4.37 µM (inactive),,2.01 µM (inactive),6.38 µM (inactive),1.51 µM (inactive),2.05 µM (inactive),1.7 µM (inactive),3.42 µM (inactive),2.38 µM (inactive),1.71 µM (inactive),
N/C(=C\c1ccc(/C=C(\NC(=O)c2ccccc2)c2nc3c([nH]2)C(=O)c2ccccc2C3=O)cc1)c1nc2c([nH]1)C(=O)c1ccccc1C2=O,,,,,4.33 µM (inactive),23.1 µM (inactive),,,16.2 µM (inactive),,15.6 µM (inactive),,12.7 µM (inactive),18.5 µM (inactive),7.55 µM (inactive),11.9 µM (inactive),14.3 µM (inactive),20.6 µM (inactive),11.6 µM (inactive),10.7 µM (inactive)
O=c1c(Cc2c(O)oc3cc(O)ccc3c2=O)c(O)oc2cc(O)ccc12,> 100 µM (inactive),> 100 µM (inactive),> 100 µM (inactive),> 100 µM (inactive),,> 100 µM (inactive),> 100 µM (inactive),> 100 µM (inactive),> 100 µM (inactive),> 100 µM (inactive),,> 100 µM (inactive),,,,,,,,
OCCNCN(CNCCO)c1nc(N(CNCCO)CNCCO)nc(N(CNCCO)CNCCO)n1,,,,,,0.133 µM (active),,0.0687 µM (active),0.0577 µM (active),0.04 µM (active),0.04 µM (active),0.0838 µM (active),0.04 µM (active),> 0.4 µM (active),,0.0653 µM (active),0.0841 µM (active),0.0959 µM (active),> 0.4 µM (active),0.04 µM (active)
CC1(C)C(O)C[C@@H](O)[C@@]2(C)C1CC[C@]1(C)C2C[C@@H](O)[C@@H]2C([C@@]3(C)CC[C@@H](C(C)(C)O)O3)CCC21C (some centres undefined),,,8.83 µM (inactive),,16.7 µM (inactive),27.2 µM (inactive),17.5 µM (inactive),16.6 µM (inactive),13.8 µM (inactive),13.4 µM (inactive),19.1 µM (inactive),14.7 µM (inactive),16.5 µM (inactive),14.6 µM (inactive),15.5 µM (inactive),14.6 µM (inactive),16.8 µM (inactive),21.3 µM (inactive),18.2 µM (inactive),10.2 µM (inactive)
CCOC(=O)/C=C(\C)c1ccc(OC)cc1,,,> 100 µM (inactive),,> 100 µM (inactive),> 100 µM (inactive),> 100 µM (inactive),,> 100 µM (inactive),> 100 µM (inactive),74.1 µM (inactive),> 100 µM (inactive),> 100 µM (inactive),> 100 µM (inactive),> 100 µM (inactive),,> 100 µM (inactive),> 100 µM (inactive),> 100 µM (inactive),> 100 µM (inactive)
CCCCCCCCCCOC(=O)NCCC,,,,,17.9 µM (inactive),34.5 µM (inactive),18.2 µM (inactive),,29.4 µM (inactive),21.4 µM (inactive),28.8 µM (inactive),16.7 µM (inactive),34.8 µM (inactive),20.6 µM (inactive),,18.7 µM (inactive),26.7 µM (inactive),,18.2 µM (inactive),38 µM (inactive)
Nc1nc(SCCNC(=O)CCc2ccc(O)c(I)c2)nc2c1ncn2C1OC(CO)C(O)C1O (centres undefined),,,> 100 µM (inactive),,,> 100 µM (inactive),> 100 µM (inactive),> 100 µM (inactive),> 100 µM (inactive),> 100 µM (inactive),> 100 µM (inactive),> 100 µM (inactive),> 100 µM (inactive),> 100 µM (inactive),> 100 µM (inactive),> 100 µM (inactive),,> 100 µM (inactive),> 100 µM (inactive),> 100 µM (inactive)
COc1ccc(/C=N/N=C(N)N)c(C(=O)O)c1OC,,,,,> 100 µM (inactive),> 100 µM (inactive),,,> 100 µM (inactive),,> 100 µM (inactive),,,> 100 µM (inactive),> 100 µM (inactive),> 100 µM (inactive),> 100 µM (inactive),> 100 µM (inactive),,> 100 µM (inactive)
CC(=O)NC1=C[C@@H]([C@H]2COC(C)(C)O2)OC1=O,> 100 µM (inactive),,,,> 100 µM (inactive),,99.3 µM (inactive),> 100 µM (inactive),,> 100 µM (inactive),,> 100 µM (inactive),> 100 µM (inactive),> 100 µM (inactive),> 100 µM (inactive),> 100 µM (inactive),> 100 µM (inactive),> 100 µM (inactive),> 82.8 µM (inactive),
CCOC(=O)c1csc(NC(=O)CCN(CC)CC)n1,40.2 µM (inactive),54.7 µM (inactive),21.9 µM (inactive),41 µM (inactive),0.0817 µM (active),23.8 µM (inactive),49.8 µM (inactive),> 100 µM (inactive),25 µM (inactive),,42.9 µM (inactive),55.7 µM (inactive),,,,,,,,
